This passage reports MIC and MBC results from patent US20040253190A1, “Breath Freshening and Oral Cleansing Product Using Citral” (priority 2002, published 2004).

Type in all cases: cell-based
The test system of one assay is Streptococcus mutans. Put plainly: MIC (Minimum Inhibitory Concentration) study, 96 well microtiter plate. Conditions: S. mutans, 5×10^5 CFU/ml, 37° C., turbidity at 660 nm after 48 hours. Here is the method:
(§1) In vitro tests were conducted with a gram positive supragingival plaque bacterium, Streptococcus mutans. In addition, two subgingival plaque bacteria associated with oral malodor were tested, Porphyromonas gingivalis and Fusobacterium nucleatum. The MIC (Minimum Inhibitory Concentrations) study protocol is as follows. Chlorhexidine was used as a positive control and sterile water was used as a negative control. Citral was suspended in 10% methanol with 3.8% Tween 80. […] 96 well microtiter plates were used for this study. Each well contained 5×10^5 colony forming units/ml of bacteria, serially diluted agents and bacterial growth medium. All bacterial cultures were incubated at 37° C. and stationary. Bacterial growth was estimated spectrophotometrically at 660 nm, after 48 hours. The MIC for each test bacteria was defined as the minimum concentration of test compound limiting turbidity to<absorbance at 660 nm.

The test system of assay [1] is Fusobacterium nucleatum. Described as above. Conditions: F. nucleatum, 5×10^5 CFU/ml, 37° C., turbidity at 660 nm after 48 hours. As for the experimental part: as §1
Assay [2] relates to Porphyromonas gingivalis. The assay is described as above. The conditions noted are these: P. gingivalis, 5×10^5 CFU/ml, 37° C., turbidity at 660 nm after 48 hours. Here is the method: as §1
Assay [3] concerns Fusobacterium nucleatum. Put plainly: MBC (Minimum bactericidal concentration), plating on blood agar. Conditions: F. nucleatum, lowest concentration killing at least 99.9% of initial inoculum, plates 48 hours at 37° C. As for the experimental part:
as §1, with “[…]. The MBC (Minimum bactericidal concentrations) were determined using the 96 well microtiter plate serial dilutions as described above for MIC studies. Serial dilution of cultures in wells showing no visible growth were performed and 10 microliters of culture were plated in triplicate on blood agar plates. Viable colonies were scored after incubation of the plates for 48 hours at 37° C. For each test bacterium, the number of CFU/ml were determined in the initial inoculum. The MBC was defined as the lowest concentration of a test compound that killed at least 99.9% of the cells present in the initial inoculum.” for “nm.”

Assay [4] relates to Porphyromonas gingivalis. Described as above. Conditions: P. gingivalis, lowest concentration killing at least 99.9% of initial inoculum, plates 48 hours at 37° C. Here is the method:
as §1, with “[…]. The MBC (Minimum bactericidal concentrations) were determined using the 96 well microtiter plate serial dilutions as described above for MIC studies. Serial dilution of cultures in wells showing no visible growth were performed and 10 microliters of culture were plated in triplicate on blood agar plates. Viable colonies were scored after incubation of the plates for 48 hours at 37° C. For each test bacterium, the number of CFU/ml were determined in the initial inoculum. The MBC was defined as the lowest concentration of a test compound that killed at least 99.9% of the cells present in the initial inoculum.” for “nm.”

In brackets after ≈: the same amount, converted by molar mass.

The term MIC denotes the lowest concentration found to suppress growth. The MBC is the smallest concentration meeting the test's criterion for killing. A higher MBC goes with weaker bactericidal potency. On to `CC(C)=CCCC(C)=CC=O` [citral], for which the figures for the MIC with Streptococcus mutans, in the assay with Fusobacterium nucleatum [1] and against Porphyromonas gingivalis [2] were 500 µg/mL (≈ 3280 µM), 15.6 µg/mL (≈ 102 µM) and 62.5 µg/mL (≈ 411 µM), respectively. The figures for the MBC in the assay with Fusobacterium nucleatum [3] and against Porphyromonas gingivalis [4] were 31.3 µg/mL (≈ 206 µM) and 125 µg/mL (≈ 821 µM), respectively.

Turning to `[H]/N=C(\N/C(=N/[H])NCCCCCCNC(=N)NC(=N)Nc1ccc(Cl)cc1)Nc1ccc(Cl)cc1` [Cholorhexidine, Chlorhexidine, reference compound], the MIC in the assay with Fusobacterium nucleatum [1] and in the assay on Porphyromonas gingivalis [2] was 1.25 µg/mL (≈ 2.47 µM) in each case. Besides, the minimal bactericidal concentration (MBC) against Fusobacterium nucleatum [3] and in the assay with Porphyromonas gingivalis [4] was 1.25 µg/mL (≈ 2.47 µM) each time.
